{
  "source": "paper PMC6156138",
  "about": "“Combination of a Latency-Reversing Agent With a Smac Mimetic Minimizes Secondary HIV-1 Infection in vitro” (Frontiers in Microbiology, 2018)",
  "key": {"[1]": {"tested_on": "HIV-1 NL4-3", "assay": "Antiviral assay, HIV-1 NL4-3 in MT-4 cells", "type": "cell-based", "conditions": "for antiviral effect when combined with EFdA: HIV-1 NL4-3 in MT-4 cells; for replication of HIV-1 NL4-3 (supernatant p24): MT-4 cells, cultured for 12 days, single drug", "experimental": "Antiviral assays using wild type HIV-1 (HIV-1 NL4-3) cells and MT-4 cells were conducted as previously described ([Maeda et al., 2014]; [Takamatsu et al., 2015]). To determine the cytotoxicity induced by LRAs and its related compounds, cells (5 × 10^5 cells/mL) were cultured in the presence or absence of LRA. After 24 h, cytotoxicity assays were performed using a Cytotoxicity LDH Assay Kit (Dojindo, Kumamoto, Japan) according to the manufacturer’s instructions. The number of living cells with the drug was measured and compared with those without the drug, and data are shown as percentage (%) of control.\nSupplementary file Data_Sheet_1.PDF: FIGURE S1 The combined effect of an RT inhibitor (EFdA/MK-8591) ([Nakata et al., 2007]; [Kawamoto et al., 2008]; [Maeda et al., 2014]) and PKC activator (PEP005) on the replication of HIV-1 NL4-3 in MT-4 cells. MT-4 cells were infected with HIV-1 NL4-3 in the presence or absence of drug(s), cultured for 12 days, and the supernatant p24 levels were measured. Click here for additional data file."}, "[2]": {"tested_on": "ACH-2 cells", "assay": "FACS analysis of active caspase-3 expression", "type": "cell-based", "conditions": "for percentage of active caspase-3 cells: ACH-2 cells, 24 h", "experimental": "Intracellular HIV-1 p24 levels and active form of caspase-3 expression were determined as previously described ([Hattori et al., 2009]; [Duro et al., 2010]; [Matsuda et al., 2015]). In brief, ACH-2 cells or U1 cells (2.5 × 10^5 cells/mL) were fixed with 1% paraformaldehyde/phosphate buffered saline (PBS) for 20 min and were permeabilized with Flow Cytometry Perm Buffer (TONBO biosciences, San Diego, CA, United States). After incubation on ice for 5 min, the cells were stained with anti-HIV-1 p24 (24-4)-FITC mAb (Santa Cruz Biotechnology, Dallas, TX, United States) and/or with Alexa Fluor 647-conjugated anti-active caspase-3 mAb (C92-605) (BD Pharmingen, San Diego, CA, United States) for 30 min on ice. Cells were then analyzed on a BD FACSVerse flow cytometer (BD Biosciences, Franklin Lakes, NJ, United States). The corrected data were analyzed with FlowJo software (Tree Star, San Carlos, CA, United States).\nFIGURE 3 (A,B) ACH-2 (A) and U1 cells (B) were treated with birinapant (50 nM), PEP005 (5 nM), birinapant plus PEP005, TNF-α (10 ng/ml), and intracellular expression of caspase-3 was examined after 24 h of incubation. The percentage of active caspase-3 cells was determined by comparison with unstimulated cells. (C) ACH-2 cells after 24 h of PEP005 (0∼50 nM) treatment with or without birinapant (50 nM) were separately analyzed in p24^+ and p24^- populations for caspase-3 expression.\nFIGURE 4 (A) ACH-2 cells were exposed to birinapant (50 nM), PEP005 (5 nM), birinapant plus PEP005, TNF-α (10 ng/ml), or birinapant plus TNF-α treatment and were cultured for 5 days, and data (FACS analysis) were collected at days 1, 3, and 5. (B) Expression of active caspase-3 in p24^+/^- populations is shown. (C) Changes in the supernatant p24 antigen levels in the presence of drug(s) on days 1, 3, and 5. […]"}, "[3]": {"tested_on": "primary CD4+ T-cells from HIV-1-infected patients", "assay": "HIV-1 reactivation in primary CD4+ T-cells from HIV-1 patients (HIV-1 mRNA)", "type": "cell-based", "conditions": "primary CD4+ T-cells from HIV-1-infected patients under cART, 24 h; PEP005 5 nM, birinapant 50 nM", "text": "Peripheral blood samples were collected from HIV-1-infected patients who had been receiving combination antiretroviral therapy (cART) for at least 6 years. All subjects maintained lower viral load (<20 copies/ml) (except for occasional blips) during therapy. CD4^+ T-cell counts in peripheral blood samples ranged from 464–807 cells/mm^3 (average 601 cells/mm^3), and plasma viral loads were <41.3 copies/ml as measured by qPCR (Roche COBAS AmpliPrep/COBAS TaqMan HIV-1 Test version 2.0) at the time of study enrollment. Written informed consent was obtained from all the subjects. […] The total RNA was extracted, cDNA was synthesized, and quantitative real-time PCR analyses for studying the expression of intracellular HIV-1 RNA were carried out as shown above. The HIV RNA copies were calculated using a standard curve obtained from serially diluted HIV-1 plasmid, the normalized values [HIV RNA copies/input RNA (ng)] with a drug were compared with that without a drug, and the relative increase in HIV-1 RNA levels in the presence of a drug was determined.\nFIGURE 5 (A) Changes in the HIV-1 mRNA expression on primary CD4^+ T-cells from HIV-1-infected patients in the presence of PEP005 and/or birinapant. […] Statistical significance was determined using Mann-Whitney U test, where P-value < 0.05 was considered to be significant."}, "[4]": {"tested_on": "PBMCs from a cART-treated HIV-1 patient", "assay": "Cytotoxicity in PBMCs from HIV-1-infected patient (PI staining, flow cytometry)", "type": "cell-based, human", "conditions": "PBMCs of cART-treated HIV-1 patient, 24 h; birinapant 50 nM, PEP005 5 nM", "experimental": "Supplementary file Data_Sheet_3.PDF: FIGURE S3 The combined effect of birinapant (50 nM) and PEP005 (5 nM) on cytotoxicity in PBMCs obtained from HIV-1-infected patients. PBMCs from a cART-treated HIV-1 patient were cultured for 24 h in the presence or absence of drug(s), and the percentage of propidium iodide (PI)^+ cells were measured by flow cytometric analysis. Click here for additional data file."}, "[5]": {"conditions": "birinapant 50 nM, PEP005 5 nM, TNF-α 10 ng/ml"}},
  "data": [
    {"smiles": "CC[C@H](NC(=O)[C@H](C)NC)C(=O)N1C[C@@H](O)C[C@H]1Cc1c(-c2[nH]c3cc(F)ccc3c2C[C@@H]2C[C@H](O)CN2C(=O)[C@H](CC)NC(=O)[C@H](C)NC)[nH]c2cc(F)ccc12", "note": "[Birinapant]", "values": [
      {"measurement": "antiviral effect when combined with EFdA", "setting": "[1]", "result": "no additive/synergistic antiviral effect"},
      {"measurement": "replication of HIV-1 NL4-3 (supernatant p24)", "setting": "[1]", "result": "little to no effect on viral replication"},
      {"measurement": "percentage of active caspase-3 cells", "setting": "[2]; [5]", "result": 2.96, "unit": "%"},
      {"measurement": "HIV-1 mRNA expression", "setting": "[3]", "result": "failed to change the HIV-1 mRNA expression in most samples"},
      {"measurement": "ratio of dead cells (PI staining)", "setting": "[4]", "result": "slightly increased the ratio of dead cells"}
    ]},
    {"smiles": "C/C=C(/C)C(=O)O[C@H]1C(C)=C[C@]23C(=O)[C@@H](C=C(CO)[C@@H](O)[C@]12O)[C@H]1[C@@H](C[C@H]3C)C1(C)C", "note": "[PEP005, ingenol-3-angelate]", "values": [
      {"measurement": "antiviral effect when combined with EFdA", "setting": "[1]", "result": "no additive/synergistic antiviral effect"},
      {"measurement": "replication of HIV-1 NL4-3 (supernatant p24)", "setting": "[1]", "result": "little to no effect on viral replication"},
      {"measurement": "Active caspase-3", "setting": "[2]; ACH-2, 24 h, p24 (+) cells, Birinapant (-), PEP005 50nM", "result": 13.0, "unit": "%"},
      {"measurement": "Active caspase-3", "setting": "[2]; ACH-2, 24 h, p24 (-) cells, Birinapant (-), PEP005 50nM", "result": 44.7, "unit": "%"},
      {"measurement": "Active caspase-3", "setting": "[2]; ACH-2, Day 5, p24 (+) cells, birinapant 50 nM, PEP005 5 nM, TNF-α 10 ng/ml", "result": "~20.7", "unit": "%"},
      {"measurement": "percentage of active caspase-3 cells", "setting": "[2]; [5]", "result": 9.98, "unit": "%"},
      {"measurement": "HIV-1 mRNA expression", "setting": "[3]", "result": "elevated the expression of HIV-1 mRNA"},
      {"measurement": "ratio of dead cells (PI staining)", "setting": "[4]", "result": "failed to increase the number of dead cells"}
    ]}
  ]
}
